From patent US20240382507A1, “PHARMACEUTICAL COMPOSITIONS COMPRISING 2,3,4,5- TETRAHYDROBENZOTHIEPIN- 1,1-DIOXIDE DERIVATIVES AND THE USE THEREOF” (Mirum Pharmaceuticals, Inc., priority 2023, published 2024)
Counter-ions that a name gives are not always drawn.

Key:
[1] = Excipient compatibility: potency and purity of binary volixibat:excipient formulations on storage (HPLC); type: physicochemical
Method: Binary formulations of volixibat potassium were prepared at either 1:1 or 10:1 ratio with the excipients outlined in Table 1.1. Powder grade excipients were utilized to maximize surface area interactions between excipient and drug substance.
Each formulation was prepared at 300 mg total sample size. Volixibat and each excipient was weighed into glass vials and mixed via vortex. A single vial of each formulation was stored loosely capped at two storage conditions: ambient/60% RH and 40° C./75% RH. Humidity control was obtained by using a saturated salt solution in a sealed container. […] A standard solution of volixibat DS prepared at nominal concentration in the analytical diluent served as the T=0 data point. The neat, loose drug substance powder was stored in the same vial configuration to serve as a control at each storage condition.
At the specified time points, approximately 50 mg of each formulation was sampled and diluted with analytical diluent in either 50 mL (for 1:1 formulations) or 100 mL (for […] and neat DS) to target nominal analytical concentration of 0.5 mg/mL volixibat. HPLC analysis was used based on the parameters described above under HPLC Parameters (Gradient Elution).

[2] = Formulation flow properties; type: physicochemical
physchem = details: 25 °C, water

SMILES	Potency, % LC Volixibat ([1]; stored at 40° C./75% RH, T = 2-weeks) [% LC]	Potency, % LC Volixibat ([1]; stored at 40° C./75% RH, T = 4 weeks) [% LC]	Potency, % LC Volixibat ([1]; stored at 40° C./75% RH, T = 8 weeks) [% LC]	Potency, % LC Volixibat ([1]; stored at RT/60% RH, T = 2-weeks) [% LC]	Potency, % LC Volixibat ([1]; stored at RT/60% RH, T = 4 weeks) [% LC]	Potency, % LC Volixibat ([1]; stored at RT/60% RH, T = 9 weeks) [% LC]	Bulk Density [2] [g/mL]	Hausner Ratio [2]	Tapped Density [2] [g/mL]	solubility (physchem) [mg/mL]
CCCC[C@]1(CC)CS(=O)(=O)c2ccc(N(C)C)cc2[C@@H](c2cccc(NC(=O)N[C@@H]3O[C@H](COS(=O)(=O)[O-])[C@@H](O)[C@H](OCc4ccccc4)[C@H]3O)c2)[C@H]1O.[K+] [Volixibat DS]	93.2	105.1	98.3	100.9	107.7	97.1	0.54	1.27	0.69	
CCCC[C@]1(CC)CS(=O)(=O)c2ccc(N(C)C)cc2[C@@H](c2cccc(NC(=O)N[C@@H]3O[C@H](COS(=O)(=O)O)[C@@H](O)[C@H](OCc4ccccc4)[C@H]3O)c2)[C@H]1O [volixibat, ((2R,3R,4S,5R,6R)-4-benzyloxy-6-{3-[3-((3S,4R,5R)-3-butyl-7-dimethylamino-3-ethyl-4-hydroxy-1,1-dioxo-2,3,4,5-tetrahydro-1H-benzo[b]thiepin-5-yl)-phenyl]-ureido}-3,5-dihydroxy-tetrahydro-pyran-2-ylmethyl) hydrogen sulfate)]										> 200
